Legend:
human TLR7 = biological target: T1, human TLR7 (Homo sapiens, UniProt Q9NYK1); assay: TLR7 inhibition reporter assay (HEK-Blue SEAP); assay type: cell-based; conditions: HEK-Blue cells overexpressing human TLR7, gardiquimod 7.5 μM, 22 hour incubation
T1 construct: host or cells: HEK-Blue cells
T1 sequence (Q9NYK1 27-1049): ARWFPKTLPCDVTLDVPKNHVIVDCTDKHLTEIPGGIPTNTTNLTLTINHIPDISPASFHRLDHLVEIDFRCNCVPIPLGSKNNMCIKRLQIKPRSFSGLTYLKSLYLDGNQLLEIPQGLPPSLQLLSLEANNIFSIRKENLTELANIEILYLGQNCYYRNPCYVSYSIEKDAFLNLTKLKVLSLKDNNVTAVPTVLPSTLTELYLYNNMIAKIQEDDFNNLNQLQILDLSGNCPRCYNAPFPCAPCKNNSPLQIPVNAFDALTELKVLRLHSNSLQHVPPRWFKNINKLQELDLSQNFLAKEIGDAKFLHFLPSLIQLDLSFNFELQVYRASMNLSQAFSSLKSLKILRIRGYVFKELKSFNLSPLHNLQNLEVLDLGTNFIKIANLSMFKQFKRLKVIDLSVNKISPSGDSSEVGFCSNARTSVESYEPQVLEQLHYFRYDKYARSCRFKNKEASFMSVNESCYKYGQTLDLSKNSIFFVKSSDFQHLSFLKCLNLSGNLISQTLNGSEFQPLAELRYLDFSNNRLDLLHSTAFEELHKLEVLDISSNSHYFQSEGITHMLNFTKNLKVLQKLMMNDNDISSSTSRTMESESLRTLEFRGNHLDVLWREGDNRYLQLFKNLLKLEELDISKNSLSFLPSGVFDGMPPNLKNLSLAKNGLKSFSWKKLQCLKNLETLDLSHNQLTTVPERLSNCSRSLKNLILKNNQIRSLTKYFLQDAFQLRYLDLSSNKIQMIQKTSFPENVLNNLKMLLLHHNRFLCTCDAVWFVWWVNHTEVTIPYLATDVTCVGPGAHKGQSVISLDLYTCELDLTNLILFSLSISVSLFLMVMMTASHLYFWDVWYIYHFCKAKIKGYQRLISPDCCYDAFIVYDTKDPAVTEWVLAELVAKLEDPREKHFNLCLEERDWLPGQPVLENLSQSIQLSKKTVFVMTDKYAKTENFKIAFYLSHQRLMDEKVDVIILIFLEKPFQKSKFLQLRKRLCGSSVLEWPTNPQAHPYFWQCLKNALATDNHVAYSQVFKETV
Experimental: (§1) TLR7/8/9 Inhibition Reporter Assays
Briefly, cells are seeded into Greiner 384 well plates (15000 cells per well for TLR7, 20,000 for TLR8 and 25,000 for TLR9) and then treated with test compounds in DMSO to yield a final dose response concentration range of 0.05 nM-50 μM. […] After a 22 hour incubation at 37° C., 5% CO2, SEAP levels are determined with the addition of HEK-Blue™ Detection reagent (Invivogen), a cell culture medium that allows for detection of SEAP, according to manufacturer's specifications. The percent inhibition is determined as the % reduction in the HEK-Blue signal present in wells treated with agonist plus DMSO alone compared to wells treated with a known inhibitor.

human TLR9 = biological target: T2, human TLR9 (Homo sapiens, UniProt Q9NR96); assay: TLR9 inhibition reporter assay (HEK-Blue SEAP); assay type: cell-based; conditions: HEK-Blue cells overexpressing human TLR9, ODN2006 5 nM, 22 hour incubation
T2 construct: host or cells: HEK-Blue cells
T2 sequence (Q9NR96 26-1032): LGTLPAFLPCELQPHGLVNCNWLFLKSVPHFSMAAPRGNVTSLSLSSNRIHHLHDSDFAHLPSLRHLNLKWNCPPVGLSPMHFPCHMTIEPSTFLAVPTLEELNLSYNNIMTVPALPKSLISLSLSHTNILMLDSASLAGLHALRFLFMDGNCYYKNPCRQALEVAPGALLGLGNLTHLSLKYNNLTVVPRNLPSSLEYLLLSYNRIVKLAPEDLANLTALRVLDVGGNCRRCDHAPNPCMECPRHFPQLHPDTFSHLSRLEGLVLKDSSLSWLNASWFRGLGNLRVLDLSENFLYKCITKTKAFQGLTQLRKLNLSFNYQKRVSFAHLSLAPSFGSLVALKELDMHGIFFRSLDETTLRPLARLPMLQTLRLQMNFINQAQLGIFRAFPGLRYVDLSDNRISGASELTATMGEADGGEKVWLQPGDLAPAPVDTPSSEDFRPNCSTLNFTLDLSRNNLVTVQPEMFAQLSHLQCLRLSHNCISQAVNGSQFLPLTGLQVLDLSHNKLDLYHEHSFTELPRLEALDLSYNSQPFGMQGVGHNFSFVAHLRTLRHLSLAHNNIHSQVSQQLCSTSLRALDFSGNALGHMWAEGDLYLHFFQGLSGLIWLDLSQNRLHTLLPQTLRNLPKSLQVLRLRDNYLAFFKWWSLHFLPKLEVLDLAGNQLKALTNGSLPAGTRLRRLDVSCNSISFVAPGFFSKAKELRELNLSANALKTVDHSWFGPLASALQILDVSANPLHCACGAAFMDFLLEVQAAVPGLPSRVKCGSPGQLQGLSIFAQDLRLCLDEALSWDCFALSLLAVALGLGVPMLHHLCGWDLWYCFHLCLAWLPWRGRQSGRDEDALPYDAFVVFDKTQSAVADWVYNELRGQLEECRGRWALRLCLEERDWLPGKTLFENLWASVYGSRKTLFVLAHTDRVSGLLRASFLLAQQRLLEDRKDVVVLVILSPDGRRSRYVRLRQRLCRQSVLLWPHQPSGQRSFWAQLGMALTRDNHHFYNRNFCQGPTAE
Experimental: as §1
HEK-Blue™-cells (Invivogen) overexpressing human TLR7, TLR8 or TLR9 receptors were used for screening inhibitors of these receptors using an inducible SEAP (secreted embryonic alkaline phosphatase) reporter gene under the control of the IFN-β minimal promoter fused to five NF-κB and AP-1-binding sites. Briefly, cells are seeded into Greiner 384 well plates (15000 cells per well for TLR7, 20,000 for TLR8 and 25,000 for TLR9) and then treated with test compounds in DMSO to yield a final dose response concentration range of 0.05 nM-50 μM. After a 30 minute compound pre-treatment at room temperature, the cells are then stimulated with a TLR7 ligand (gardiquimod at a final concentration of 7.5 μM), TLR8 ligand (R848 at a final concentration of 15.9 μM) or TLR9 ligand (ODN2006 at a final concentration of 5 nM) to activate NF-κB and AP-1 which induce the production of SEAP. After a 22 hour incubation at 37° C., 5% CO2, SEAP levels are determined with the addition of HEK-Blue™ Detection reagent (Invivogen), a cell culture medium that allows for detection of SEAP, according to manufacturer's specifications. The percent inhibition is determined as the % reduction in the HEK-Blue signal present in wells treated with agonist plus DMSO alone compared to wells treated with a known inhibitor.

SMILES | IC50 (human TLR7) [µM] | IC50 (human TLR9) [µM]
COc1cc(-c2cc3[nH]c(=O)n([C@H]4CCCN(CC5CC5)C4)c3cc2C(C)C)cn2ncnc12 (single isomer, unassigned) [Example 128] | 0.044 | > 50
CCN1CCC[C@@H](n2c(=O)[nH]c3cc(-c4cc(OC)c5ncnn5c4)c(C(C)C)cc32)C1 (single isomer, unassigned) [Example 144] | 0.00858 | 14.1
Cc1cc2c(cc1-c1cc(C)c3ncnn3c1)[nH]c(=O)n2C1CCN(C)CC1 [Example 3, 6-methyl-5-(8-methyl-[1,2,4]triazolo[1,5-a]pyridin-6-yl)-1-(1-methylpiperidin-4-yl)-1,3-dihydro-2H-benzo[d]imidazol-2-one] | 0.0305 | 4.64
CCN1CCC(n2c(=O)[nH]c3cc(-c4cc(C)c5ncnn5c4)c(C)cc32)CC1 [Example 6, 1-(1-ethylpiperidin-4-yl)-6-methyl-5-(8-methyl-[1,2,4]triazolo[1,5-a]pyridin-6-yl)-1,3-dihydro-2H-benzo[d]imidazol-2-one] | 0.0387 | 0.871
CCCN1CCC(n2c(=O)[nH]c3cc(-c4cc(C)c5ncnn5c4)c(C)cc32)CC1 [Example 7, 6-methyl-5-(8-methyl-[1,2,4]triazolo[1,5-a]pyridin-6-yl)-1-(1-propylpiperidin-4-yl)-1,3-dihydro-2H-benzo[d]imidazol-2-one] | 0.0418 | 1.33
COc1cc(-c2cc3[nH]c(=O)n(C4CCN(C(C)C)CC4)c3cc2C)cn2ncnc12 [Example 10, 1-(1-isopropylpiperidin-4-yl)-5-(8-methoxy-[1,2,4]triazolo[1,5-a]pyridin-6-yl)-6-methyl-1,3-dihydro-2H-benzo[d]imidazol-2-one] | 0.0632 | 0.354
Cc1cc2c(cc1-c1cc(C)c3ncnn3c1)[nH]c(=O)n2[C@@H]1CCCN(CC(N)=O)C1 [Example 94, (R)-2-(3-(6-methyl-5-(8-methyl-[1,2,4]triazolo[1,5-a]pyridin-6-yl)-2-oxo-2,3-dihydro-1H-benzo[d]imidazol-1-yl)piperidin-1-yl)acetamide] | 0.704 | > 50
Cc1cc2c(cc1-c1cc(C)c3ncnn3c1)[nH]c(=O)n2[C@@H]1CCCN(CC#N)C1 [Example 96, (R)-2-(3-(6-methyl-5-(8-methyl-[1,2,4]triazolo[1,5-a]pyridin-6-yl)-2-oxo-2,3-dihydro-1H-benzo[d]imidazol-1-yl)piperidin-1-yl)acetonitrile] | 0.0661 | 8.64
COCCN1CCC[C@@H](n2c(=O)[nH]c3cc(-c4cc(C)c5ncnn5c4)c(C)cc32)C1 [Example 97, (R)-1-(1-(2-methoxyethyl)piperidin-3-yl)-6-methyl-5-(8-methyl-[1,2,4]triazolo[1,5-a]pyridin-6-yl)-1,3-dihydro-2H-benzo[d]imidazol-2-one] | 0.0388 | 19.1
COCCN1CCC[C@@H](n2c(=O)[nH]c3cc(-c4cc(OC)c5ncnn5c4)c(C)cc32)C1 [Example 98, (R)-5-(8-methoxy-[1,2,4]triazolo[1,5-a]pyridin-6-yl)-1-(1-(2-methoxyethyl)piperidin-3-yl)-6-methyl-1,3-dihydro-2H-benzo[d]imidazol-2-one] | 0.0205 | 5.91
COc1cc(-c2cc3[nH]c(=O)n(C4CCN(C(=O)CN(C)C)CC4)c3cc2C)cn2ncnc12 [Example 100, 1-(1-(2-(dimethylamino)acetyl)piperidin-4-yl)-5-(8-methoxy-[1,2,4]triazolo[1,5-a]pyridin-6-yl)-6-methyl-1H-benzo[d]imidazol-2(3H)-one] | 0.548 | 1.66

Other lines, results leading:

IC50 (human TLR7) [µM] | IC50 (human TLR9) [µM] | SMILES
0.863 | 0.964 | Cc1cc(-c2ccc3c(c2)[nH]c(=O)n3C2CCN(C)CC2)cn2ncnc12 [Example 4, 5-(8-methyl-[1,2,4]triazolo[1,5-a]pyridin-6-yl)-1-(1-methylpiperidin-4-yl)-1,3-dihydro-2H-benzo[d]imidazol-2-one]
1.55 | 2.75 | Cc1cc(-c2ccc3c(c2)[nH]c(=O)n3C2CCN(C(C)C)CC2)cn2ncnc12 [Example 5, 1-(1-isopropylpiperidin-4-yl)-5-(8-methyl-[1,2,4]triazolo[1,5-a]pyridin-6-yl)-1,3-dihydro-2H-benzo[d]imidazol-2-one]
0.0708 | 0.638 | CCN1CCC(n2c(=O)[nH]c3cc(-c4cc(OC)c5ncnn5c4)c(C)cc32)CC1 [Example 9, 1-(1-ethylpiperidin-4-yl)-5-(8-methoxy-[1,2,4]triazolo[1,5-a]pyridin-6-yl)-6-methyl-1,3-dihydro-2H-benzo[d]imidazol-2-one]
0.117 | 14.6 | Cc1cc2c(cc1-c1cc(C)c3ncnn3c1)[nH]c(=O)n2[C@@H]1CCCN(CC(=O)N(C)C)C1 [Example 95, (R)—N,N-dimethyl-2-(3-(6-methyl-5-(8-methyl-[1,2,4]triazolo[1,5-a]pyridin-6-yl)-2-oxo-2,3-dihydro-1H-benzo[d]imidazol-1-yl)piperidin-1-yl)acetamide]
0.391 | > 50 | COc1cc(-c2cc3[nH]c(=O)n([C@@H]4CCCN(CC(=O)N(C)C)C4)c3cc2C)cn2ncnc12 [Example 99, (R)-2-(3-(5-(8-methoxy-[1,2,4]triazolo[1,5-a]pyridin-6-yl)-6-methyl-2-oxo-2,3-dihydro-1H-benzo[d]imidazol-1-yl)piperidin-1-yl)-N,N-dimethylacetamide]

— patent US12187723B2 (BRISTOL-MYERS SQUIBB COMPANY, priority 2019, dated 2025)
